Experimental data reported in PMC9965614, “Computer-Aided Virtual Screening and In Vitro Validation of Biomimetic Tyrosinase Inhibitory Peptides from Abalone Peptidome” (International Journal of Molecular Sciences, 2023).
“Also recorded” adds a separate entry of the source. Where a SMILES comes first, the peptide text is derived from it.

How the values were obtained:
[1] = tested on: reactive oxygen species (ROS) level in B16F10 cells; assay: ROS level in B16F10 cells after UV exposure (assay kit); assay type: cell-based, murine; settings: 70 μM, UV-exposed B16F10 cells, compared to untreated control group
Procedure: (§1) To determine the antioxidant activity, the centrifugation precipitate from Section 4.6 was dissolved in 1 mL of 1 M NaOH containing 10% DMSO at 80 °C for 1 h. Various assay kits, all from Beijing Solarbio Science & Technology Co., Ltd., Beijing, China, were used to measure the quantity of reduced reactive oxygen species (ROS) and the activity of superoxide dismutase (SOD), catalase (CAT), and glutathione peroxidase (GPx) according to the methods by Hu et al..

B16F10 melanoma cells [2] = assay: Cell viability assay (MTT assay); assay type: cell-based, murine; settings: 0–1000 μg/mL, 24 h
Procedure: The number of viable cells was determined by the ability of mitochondria to convert MTT to formazan dye. The quantity of formazan formed is proportional to the number of viable cells present and can be measured spectrophotometrically. The method for MTT assay in this study was modified from Zaidi et al.. […] After 24 h incubation, 1 mg/mL of MTT (Invitrogen, Eugene, USA) solution was replaced prior to incubation at 37 °C for 3 h. The formazan precipitates were dissolved by 100 μL of dimethyl sulfoxide (DMSO) and the concentrations were measured at 570 nm in a microplate reader (Synergy H1, BioTek, Santa Clara USA). Cell viability was calculated using the following formula: cell viability (%) = (Asample/Acontrol) × 100, where Asample and Acontrol are the absorbances from the mixture with or without the addition of test sample, respectively.

cellular tyrosinase = target: T1, cellular tyrosinase (Mus musculus, UniProt P11344); assay: Intracellular (cellular) tyrosinase activity assay in UV-induced B16F10 cells; assay type: cell-based, murine; settings: 70 μM peptide, UVA/UVB-induced B16F10 cells, triplicate
T1 construct: the harvested cells were lysed in cell extraction buffer; endogenous in cells; host or cells: B16F10 murine melanoma cells, UVA/UVB-induced
T1 sequence (P11344 19-533): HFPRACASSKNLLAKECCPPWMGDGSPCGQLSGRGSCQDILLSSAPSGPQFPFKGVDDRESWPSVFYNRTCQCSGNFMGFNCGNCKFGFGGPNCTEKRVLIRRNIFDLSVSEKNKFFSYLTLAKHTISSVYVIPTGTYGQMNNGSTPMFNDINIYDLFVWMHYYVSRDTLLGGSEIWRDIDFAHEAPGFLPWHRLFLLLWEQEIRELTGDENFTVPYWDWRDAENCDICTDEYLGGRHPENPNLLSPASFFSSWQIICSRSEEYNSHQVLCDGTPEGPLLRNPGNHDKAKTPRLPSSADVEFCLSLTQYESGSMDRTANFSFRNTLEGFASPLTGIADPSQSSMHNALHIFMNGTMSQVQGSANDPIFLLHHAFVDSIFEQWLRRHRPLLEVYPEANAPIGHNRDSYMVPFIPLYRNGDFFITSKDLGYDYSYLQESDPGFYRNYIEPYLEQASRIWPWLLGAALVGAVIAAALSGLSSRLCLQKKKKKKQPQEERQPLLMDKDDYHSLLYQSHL
Procedure: Tyrosinase activity was measured based on Dopa oxidase activity by estimating the dopachrome production according to the method by Qiao et al., 2012 [54], with some modifications. B16F10 cells were seeded at 5 × 10^6 cells/mL in 24-well plates. […] Each well was then washed and replaced with PBS 600 μL and induced with UVA (314-400 nm, 3.0 W) and UVB (280-315 nm, 13.6 W) using OSRAM (Ultra-Vitalux, Germany) for 22 s (0.32 J/cm^2). After that, the cells were incubated with medium 600 μL/well for a further 24 h. Then, the cells were trypsinized and the harvested cells were lysed in cell extraction buffer. After normalized protein concentration, 10 μL of each lysate supernatant was aliquoted into a 96-well plate and shaking incubated in dark conditions with 1 mM L-DOPA 90 μL in PBS at 37 °C at 280 rpm for 10 min. The absorbance was measured at 475 nm and all experiments were performed in triplicate to determine the IC50 of the samples. The cellular tyrosinase inhibitory activity was calculated with the following equation: % Cellular tyrosinase inhibition=[(C)-(S)/(C)]×100, where, C are defined as in the previous section.

tyrosinase [3] = settings: RF machine learning model, 425 sequence features; cited from earlier work
Description: (§2) Table 1 Abalone predicted TIPs by KNN and RF-based predictors and the predicted antioxidant scores by AnOxPePred 1.0 program. | column: Predicted Anti-Tyrosinase Probability / RF Predictor || Previously, our research team proposed the in-house machine learning-based anti-tyrosinase prediction tool, which provides thousands of potential peptides. The probability scores of all 1079 peptides from KNN-based and RF-based models can be found in the supplementary file of the previous article by Kongsompong et al.. The KNN and RF predictors were trained and tested against 133 peptides with known anti-tyrosinase properties with 97% and 99% accuracy. The predictions of both models were based on the numeric matrix of 425 features calculated from amino acid composition (20 featur ...

tyrosinase [4] = settings: KNN machine learning model, 425 sequence features; cited from earlier work
Description: as §2, with “/ KNN” for “/ RF”

B16F10 melanoma cells [5] = assay: Melanin content assay in UV-induced B16F10 cells; assay type: cell-based, murine; settings: for inhibition of melanin content: 70 μM peptide, UVA/UVB-induced B16F10 cells, triplicate
Procedure: Cellular melanin content was measured using a modified method by Jegal, et al.. B16F10 cells were seeded at 5 × 10^5 cells/mL in 24-well plates. […] After that, the cells in each well were washed and replaced by PBS. The UV stimulation process was performed by the exposure to UVA (314-400 nm, 3.0 W) and UVB (280-315 nm, 13.6 W) for 22 s. Then, PBS was replaced with media and further incubated for 24 h. The UV-stimulated cells were then trypsinized and centrifuged at 1500 rpm for 5 min. The cell pellet was then dissolved in 2 M NaOH at 60 °C for 1 h to solubilize the melanin. The melanin content was estimated by measuring the absorbance at 405 nm. The melanin content was calculated with the following equation: % Melanin content=(S)/(C)×100, where, S is the OD405 of sample and C represents the OD405 of control. All experiments were performed in triplicate.

catalase (CAT) = assay: Antioxidative enzyme activity, catalase (assay kit); assay type: cell-based, murine; settings: 70 μM, UV-exposed B16F10 cells
Procedure: as §1

[6] = tested on: superoxide dismutase (SOD); assay: Antioxidative enzyme activity, superoxide dismutase (assay kit); assay type: cell-based, murine; settings: 70 μM, UV-exposed B16F10 cells
Procedure: as §1

mushroom tyrosinase = mushroom tyrosinase (Agaricus bisporus, UniProt C7FF04); assay: Mushroom tyrosinase activity assay (L-DOPA oxidation, diphenolase); assay type: biochemical; settings: L-DOPA substrate, up to 500 μM
Sequence of mushroom tyrosinase (C7FF04 1-392): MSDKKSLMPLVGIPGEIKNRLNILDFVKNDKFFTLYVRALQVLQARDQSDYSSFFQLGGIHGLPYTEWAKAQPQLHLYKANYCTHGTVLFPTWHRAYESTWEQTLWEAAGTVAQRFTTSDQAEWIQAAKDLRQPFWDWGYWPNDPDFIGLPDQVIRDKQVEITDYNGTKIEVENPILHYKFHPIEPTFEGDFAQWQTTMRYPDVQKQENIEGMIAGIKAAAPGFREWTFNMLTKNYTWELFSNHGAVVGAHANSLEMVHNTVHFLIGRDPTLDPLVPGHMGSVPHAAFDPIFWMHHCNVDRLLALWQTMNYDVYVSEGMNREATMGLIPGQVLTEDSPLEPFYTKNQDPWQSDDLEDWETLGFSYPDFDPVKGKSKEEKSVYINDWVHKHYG
Sequence of mushroom tyrosinase (G1K3P4 1-150 partner): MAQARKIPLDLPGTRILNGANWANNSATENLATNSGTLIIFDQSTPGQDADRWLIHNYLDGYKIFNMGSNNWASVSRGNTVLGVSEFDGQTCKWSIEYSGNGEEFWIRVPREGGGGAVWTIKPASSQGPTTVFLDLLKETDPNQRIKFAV
Procedure: The inhibitory effect on mushroom tyrosinase was determined spectrophotometrically via L-DOPA oxidation. The reaction mixture consisted of 20 μL of hdTIPs, 140 μL of 100 mM sodium phosphate buffer (pH6.8) and 40 μL of 200 units/mL mushroom tyrosinase (EC 1.14.18.1; Sigma, Saint Louis, USA) placed in a 96-well microplate, then incubated for 10 min. After that, 20 μL of 5mM L-DOPA were mixed into each well over 20 min. Furthermore, the amount of dopachrome produced absorbance was measured at 475 nm. In addition, KA was used as the positive control at the same concentrations and conditions to hdTIPs. This method was modified from Kim et al..
The mushroom tyrosinase inhibitory activity was calculated with the following equation: % Mushroom tyrosinase inhibition=[(C)−(S)/(C)]×100, where, C represents the OD475 of control and S is the OD475 of sample. All experiments were performed in triplicate to determine the IC50 of the samples.

C[C@H](NC(=O)[C@H](CC(=O)O)NC(=O)[C@H](CO)NC(=O)[C@H](CO)NC(=O)[C@H](C)NC(=O)[C@@H](N)[C@@H](C)O)C(=O)N[C@@H](Cc1c[nH]c2ccccc12)C(=O)N[C@@H](Cc1ccc(O)cc1)C(=O)N[C@@H](CCCNC(=N)N)C(=O)O [TIP1] (H-TASSDAWYR-OH; N-terminus and C-terminus assumed)
effect on relative percentage of ROS in melanoma cells [1]: significant reductive effects

OC[C@H]1O[C@@H](Oc2ccc(O)cc2)[C@H](O)[C@@H](O)[C@@H]1O [arbutin, reference compound]
effect on cell proliferation of melanoma cells (B16F10 melanoma cells [2]): did not affect the cell proliferation

CC[C@H](C)[C@H](NC(=O)[C@@H](N)CC(N)=O)C(=O)N[C@@H](CS)C(=O)N[C@@H](CCC(=O)O)C(=O)N[C@@H](CS)C(=O)N[C@@H](CCSC)C(=O)N[C@@H](CCCCN)C(=O)O [KNN1] (H-NICECMK-OH; N-terminus and C-terminus assumed)
inhibition of cellular tyrosinase (cellular tyrosinase): unable to inhibit | Predicted Anti-Tyrosinase Probability RF Predictor (tyrosinase [3]): 0.39 | Predicted Anti-Tyrosinase Probability KNN Predictor (tyrosinase [4]): 1.00 | inhibition of melanin content (B16F10 melanoma cells [5]): unable to inhibit; also recorded: did not inhibit

O=c1cc(CO)occ1O [kojic acid, reference compound]
inhibition at 100 µg/mL (B16F10 melanoma cells [5]; Mus musculus, B16-F10, light or radiation study): 21.1%

CC(C)[C@H](NC(=O)[C@H](CCCNC(=N)N)NC(=O)[C@H](Cc1ccc(O)cc1)NC(=O)[C@H](CC(N)=O)NC(=O)[C@H](CCCCN)NC(=O)[C@@H](N)CCCCN)C(=O)N[C@@H](CO)C(=O)N[C@@H](CCC(=O)O)C(=O)N[C@@H](C)C(=O)N[C@@H](Cc1ccc(O)cc1)C(=O)N[C@@H](CCCCN)C(=O)O [KNN3] (H-KKNYRVSEAYK-OH; N-terminus and C-terminus assumed)
Predicted Anti-Tyrosinase Probability RF Predictor (tyrosinase [3]): 0.32 | Predicted Anti-Tyrosinase Probability KNN Predictor (tyrosinase [4]): 1.00

CC(C)[C@H](NC(=O)[C@H](CO)NC(=O)[C@H](CCCNC(=N)N)NC(=O)[C@H](CO)NC(=O)[C@H](CC(N)=O)NC(=O)[C@H](CO)NC(=O)[C@H](CCC(N)=O)NC(=O)[C@@H](N)CO)C(=O)N[C@@H](CO)C(=O)N[C@@H](CCCNC(=N)N)C(=O)O [RF3] (H-SQSNSRSVSR-OH; N-terminus and C-terminus assumed)
inhibition of cellular tyrosinase (cellular tyrosinase): 5.11% | effect on relative percentage of ROS in melanoma cells [1]: significant reductive effects | Predicted Anti-Tyrosinase Probability RF Predictor (tyrosinase [3]): 0.52 | Predicted Anti-Tyrosinase Probability KNN Predictor (tyrosinase [4]): 0.00 | inhibition of melanin content (B16F10 melanoma cells [5]): 6.09% | effect on CAT activity (catalase (CAT)): affected | effect on SOD activity [6]: affected

CSCC[C@H](NC(=O)[C@H](Cc1ccccc1)NC(=O)[C@@H]1CCCN1C(=O)[C@H](C)NC(=O)[C@@H](N)CO)C(=O)N1CCC[C@H]1C(=O)N[C@@H](CC(=O)O)C(=O)N[C@@H](C)C(=O)N[C@@H](Cc1ccccc1)C(=O)N[C@@H](Cc1ccccc1)C(=O)N[C@@H](CCCNC(=N)N)C(=O)N[C@@H](CC(N)=O)C(=O)N[C@H](C(=O)O)C(C)C [TIP2] (H-SAPFMPDAFFRNV-OH; N-terminus and C-terminus assumed)
inhibition of cellular tyrosinase (cellular tyrosinase): 3.32% | inhibition of melanin content (B16F10 melanoma cells [5]): 6.71%

CC(C)C[C@H](NC(=O)[C@H](CO)NC(=O)[C@H](CO)NC(=O)[C@@H](N)CC(N)=O)C(=O)N[C@@H](CCCNC(=N)N)C(=O)N[C@H](C(=O)N[C@@H](CCC(N)=O)C(=O)N[C@@H](CO)C(=O)N[C@@H](CCCNC(=N)N)C(=O)O)C(C)C [RF2] (H-NSSLRVQSR-OH; N-terminus and C-terminus assumed)
inhibitory effect on mushroom tyrosinase (diphenolase activity) (mushroom tyrosinase): did not show any inhibition | Predicted Anti-Tyrosinase Probability RF Predictor (tyrosinase [3]): 0.60 | Predicted Anti-Tyrosinase Probability KNN Predictor (tyrosinase [4]): 0.00

C[C@H](NC(=O)[C@@H](N)CO)C(=O)N1CCC[C@H]1C(=O)N[C@H](C(=O)N[C@@H](Cc1ccccc1)C(=O)N[C@@H](Cc1ccccc1)C(=O)N[C@@H](CCCNC(=N)N)C(=O)O)[C@@H](C)O [RF1] (H-SAPTFFR-OH; N-terminus and C-terminus assumed)
inhibitory effect on mushroom tyrosinase (diphenolase activity) (mushroom tyrosinase): did not inhibit | inhibition of cellular tyrosinase (cellular tyrosinase): 18.26% | effect on relative percentage of ROS in melanoma cells [1]: significant reductive effects | Predicted Anti-Tyrosinase Probability RF Predictor (tyrosinase [3]): 0.63 | Predicted Anti-Tyrosinase Probability KNN Predictor (tyrosinase [4]): 0.00 | inhibition of melanin content (B16F10 melanoma cells [5]): 10.69%
